This passage reports IC50 results from patent US20260217717A1, “CDK2 INHIBITORS” (BLUEPRINT MEDICINES CORPORATION, priority 2023, published 2026).

Assay [1] concerns the target T1, CDK1/Cyclin B1 (Homo sapiens, UniProt P06493).
T1 construct: GST; purchased BPS 40454
As to the kind of experiment: CDK1/Cyclin B1 enzymatic phosphorylation assay (Caliper mobility shift). The class given is biochemical. The conditions noted are these: read-out: Enzyme CDK1/cyclin B1 IC50. As for the experimental part:
(§1) Reactions proceeded until between 10% to 20% total peptides were phosphorylated at room temperature (25° C.) and were terminated with 35 mM 2,2′,2″,2′″-(ethane-1,2-diyldinitrilo)tetraacetic acid (EDTA). Product was detected using the Caliper mobility shift detection method where the phosphorylated peptide (product) and substrate were electrophoretically separated and measured. Percent activity was plotted against log concentration of compound and points to generate an apparent IC50.

Assay [2] deals with T2, CDK2/Cyclin E (Homo sapiens, UniProt P24941).
T2 construct: purchased Eurofins 14-475
As to the kind of experiment: CDK2/Cyclin E enzymatic phosphorylation assay (Caliper mobility shift). Further: 1.0 mM ATP or ATP Km. To be noted: read-out: Enzyme CDK2/cyclin E IC50. In kind it is biochemical. Here is the method: as §1

T1 sequence (P06493 whole entry): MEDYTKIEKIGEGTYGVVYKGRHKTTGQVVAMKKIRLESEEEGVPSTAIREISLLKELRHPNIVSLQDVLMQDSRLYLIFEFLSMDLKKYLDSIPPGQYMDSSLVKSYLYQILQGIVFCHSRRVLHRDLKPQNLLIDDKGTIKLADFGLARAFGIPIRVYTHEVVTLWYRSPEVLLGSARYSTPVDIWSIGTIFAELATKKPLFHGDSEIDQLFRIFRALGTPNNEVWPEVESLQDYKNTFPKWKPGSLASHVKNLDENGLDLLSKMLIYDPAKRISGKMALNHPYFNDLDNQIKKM
T1 sequence (P14635 whole entry partner): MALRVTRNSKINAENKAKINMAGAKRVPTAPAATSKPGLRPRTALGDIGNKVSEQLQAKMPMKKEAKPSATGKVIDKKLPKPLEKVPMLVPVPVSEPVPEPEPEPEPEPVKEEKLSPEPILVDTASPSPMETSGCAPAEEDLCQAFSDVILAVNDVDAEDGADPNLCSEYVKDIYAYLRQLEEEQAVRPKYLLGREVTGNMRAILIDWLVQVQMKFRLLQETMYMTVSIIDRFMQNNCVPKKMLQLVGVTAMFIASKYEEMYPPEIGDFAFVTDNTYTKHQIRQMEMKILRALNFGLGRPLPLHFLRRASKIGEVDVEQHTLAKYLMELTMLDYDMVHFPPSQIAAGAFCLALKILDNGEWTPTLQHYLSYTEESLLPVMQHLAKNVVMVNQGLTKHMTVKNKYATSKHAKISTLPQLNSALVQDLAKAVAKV

In the case of `CC(C)c1cc(Nc2cnc3cnn(C[C@H](C)CO)c3n2)n[nH]1` [Example 61, (S)-3-(6-((5-isopropyl-1H-pyrazol-3-yl)amino)-1H-pyrazolo[3,4-b]pyrazin-1-yl)-2-methylpropan-1-ol], the results for the IC50 in assay [1] and in assay [2] were 1880 nM and 13.2 nM, respectively.
Consider `Cc1cc(Nc2cnc3cnn([C@@H](C)c4cccnc4)c3n2)n[nH]1` [Example 15, (S)-N-(5-methyl-1H-pyrazol-3-yl)-1-(1-(pyridin-3-yl)ethyl)-1H-pyrazolo[3,4-b]pyrazin-6-amine], for which the IC50 in assay [1] was found to be 5660 nM; in assay [2], 29.2 nM.
The like results for `CC(C)c1cc(Nc2cnc3cnn([C@@H](C)c4cccnc4)c3n2)n[nH]1` [Example 29, (S)-N-(5-isopropyl-1H-pyrazol-3-yl)-1-(1-(pyridin-3-yl)ethyl)-1H-pyrazolo[3,4-b]pyrazin-6-amine] were, in that order, 159 nM and 0.2 nM.
The matching figures for `c1nc2cnn(CC3CCOCC3)c2nc1Nc1cc(C2CC2)[nH]n1` [Example 36, N-(5-cyclopropyl-1H-pyrazol-3-yl)-1-((tetrahydro-2H-pyran-4-yl)methyl)-1H-pyrazolo[3,4-b]pyrazin-6-amine]: 83.6 nM and 0.5 nM.
The like results for `Cc1cc(Nc2cnc3cnn([C@H]4CC[C@H](O)CC4)c3n2)n[nH]1` [Example 39, (1r,4r)-4-(6-((5-methyl-1H-pyrazol-3-yl)amino)-1H-pyrazolo[3,4-b]pyrazin-1-yl)cyclohexan-1-ol] were, in that order, 7650 nM and 90 nM.
For the compound `Cc1cc(Nc2cnc3c(Cl)nn([C@@H](C)c4cccnc4)c3n2)n[nH]1` [Example 27, (S)-3-chloro-N-(5-methyl-1H-pyrazol-3-yl)-1-(1-(pyridin-3-yl)ethyl)-1H-pyrazolo[3,4-b]pyrazin-6-amine], the IC50 in assay [1] was 10000 nM; in assay [2] it was 96.1 nM.
The matching figures for `Fc1ncccc1Cn1ncc2ncc(Nc3cc(C4COC4)[nH]n3)nc21` [Example 49, 1-((2-fluoropyridin-3-yl)methyl)-N-(5-(oxetan-3-yl)-1H-pyrazol-3-yl)-1H-pyrazolo[3,4-b]pyrazin-6-amine]: 644 nM and 2.8 nM.
The matching figures for `Cc1cc(Nc2cnc3cnn(Cc4cccnc4)c3n2)n[nH]1` [Example 3, N-(5-methyl-1H-pyrazol-3-yl)-1-(pyridin-3-ylmethyl)-1H-pyrazolo[3,4-b]pyrazin-6-amine]: 9140 nM and 78.1 nM.
Regarding `Cc1nn(CC2CCOCC2)c2nc(Nc3cc(C(C)C)[nH]n3)cnc12` [Example 6, N-(5-isopropyl-1H-pyrazol-3-yl)-3-methyl-1-((tetrahydro-2H-pyran-4-yl)methyl)-1H-pyrazolo[3,4-b]pyrazin-6-amine], the IC50 in assay [1] worked out at 388 nM; in assay [2], 3.7 nM.
On to `Fc1ccc(Cn2ncc3ncc(Nc4cc(C5COC5)[nH]n4)nc32)cc1` [Example 47, 1-(4-fluorobenzyl)-N-(5-(oxetan-3-yl)-1H-pyrazol-3-yl)-1H-pyrazolo[3,4-b]pyrazin-6-amine], for which the IC50 in assay [1] was 1380 nM; in assay [2] it was 16 nM.
The matching figures for `CC(C)c1cc(Nc2cnc3cnn(C[C@H]4CCOC4)c3n2)n[nH]1` (single isomer, unassigned) [Example 11, (R)-N-(5-isopropyl-1H-pyrazol-3-yl)-1-((tetrahydrofuran-3-yl)methyl)-1H-pyrazolo[3,4-b]pyrazin-6-amine or (S)-N-(5-isopropyl-1H-pyrazol-3-yl)-1-((tetrahydrofuran-3-yl)methyl)-1H-pyrazolo[3,4-b]pyrazin-6-amine]: 1270 nM and 3.8 nM.
The matching figures for `C[C@@H](c1cccnc1)n1ncc2ncc(Nc3cc(C4CC4)[nH]n3)nc21` [Example 31, (S)-N-(5-cyclopropyl-1H-pyrazol-3-yl)-1-(1-(pyridin-3-yl)ethyl)-1H-pyrazolo[3,4-b]pyrazin-6-amine]: 57.8 nM and 0.1 nM.
The matching figures for `C[C@@H](c1cccc(F)c1)n1ncc2ncc(Nc3cc(C4COC4)[nH]n3)nc21` [Example 51, (S)-1-(1-(3-fluorophenyl)ethyl)-N-(5-(oxetan-3-yl)-1H-pyrazol-3-yl)-1H-pyrazolo[3,4-b]pyrazin-6-amine]: 422 nM and 1.8 nM.
